Measured values reported in patent publication US20030083374A1, “NAALADase inhibitors useful as pharmaceutical compounds and compositions” (priority 1998, published 2003).

Tests used:
[1] = test system: Dorsal root ganglia-Schwann cell co-cultures; experiment: in vitro myelination in dorsal root ganglia-Schwann cell co-cultures; assay type: cell-based
Text: The inventors hypothesized that NAALADase may play a role in signaling myelin formation and inhibition of NAALADase may facilitate myelination. To test this hypothesis, the inventors examined the effects of several NAALADase inhibitors in a well established in vitro model system of myelination. Dorsal root ganglia-Schwann cell co-cultures were established as previously described (Einheber et al., J. Cell. Biol., Vol. 123, p. 1223). Following 7 days in co-culture, myelination was initiated following the addition of serum and ascorbic acid with various doses of NAALADase inhibitors (1 nM to 10 μM) or progesterone (20 nM; positive control). The extent of myelination was examined between days 14-21 using immunocytochemical staining for myelin basic protein (MBP), a known myelin marker.

[2] = test system: streptozotocin (STZ)-induced peripheral diabetic neuropathy; experiment: in vivo STZ-induced peripheral diabetic neuropathy model, plantar test; set-up: species or system Male Sprague-Dawley rats; conditions: 50 mg/kg i.p. once per day, following 5 days of dosing
Experimental: NAALADase inhibition in an in vivo streptozotocin (STZ)-induced peripheral diabetic neuropathy model was studied. Male Sprague-Dawley rats weighing 200-250 g were rendered diabetic by intravenous injection of 60 mg/kg STZ into the tail vein. Plasma glucose levels were determined 3 weeks after STZ administration. Only STZ-animals with plasma glucose levels>300 mg/dL (17 mM) were used in the study. Thermal pain threshold and withdrawal latency were used to assess the status of the small dorsal root ganglion (DRG) sensory neurons. Pain was monitored using the plantar test (Hargreaves' Method) using a Basile Plantar apparatus built by Ugo Basil, Vaarese, Italy.
At two months following the STZ administration, the diabetic animals were hyperalgesic as compared to non-diabetic controls as determined by their difference in withdrawal latency. At this time, the rats were administered either the NAALADase inhibitor Compound 2 (50 mg/kg) or vehicle intraperitoneally once per day for 20 days. Thermal pain responses were measured at days 3, 5, 12 and 19 post-dosing. […] This difference was maintained throughout the observation period.

[3] = test system: acetic acid (0.6%) induced writhing; experiment: acetic acid model of pain (writhing); assay type: in vivo, mice; conditions: pretreated
Text: One source of neuronal glutamate is thought to derive from the abundant neuropeptide NAAG which is hydrolyzed by NAALADase to liberate free glutamate. The inventors hypothesized that inhibition of NAALADase could limit pain by preventing this source of glutamate. To test this hypothesis, the inventors examined the possible antinocipetive effects of several NAALADase inhibitors in the formalin-, acetic acid- and chronic constrictive injury (CCI; “Bennett model”) models of pain. […] On day 7, 5% formalin was injected into the dorsum of the rat's hindpaw.

[4] = test system: STZ-induced diabetic rats; experiment: in vivo assay on neuropathic pain in STZ-diabetic rats (Hargreaves); set-up: species or system Male Sprague-Dawley rats; conditions: 10 mg/kg i.p. daily, started 45 days post-STZ
Experimental: (§1) Male Sprague-Dawley rats (200-225 g) were rendered diabetic by intravenous administration of streptozotocin (STZ, 70 mg/kg in phosphate buffered saline). Diabetic animals were divided into five groups: one group receiving Compound 2 (10 mg/kg or 1 mg/kg), Compound 1 (10 mg/kg or 1 mg/kg) or vehicle. Another group of animals (non-STZ treated) served as non-diabetic controls. Drug/vehicle treatment was started in diabetic animals 45 days post-STZ administration. STZ-induced diabetic rats were tested for sensitivity to a heat source as soon as blood glucose levels rose to 320 mg/dl or above (30 days post STZ). The rats were then acclimated to the Hargreaves apparatus and thermal nociception was monitored using an infrared heat source directed into the […] surface of the hindpaw, and the time taken for the animal to remove its paw noted to the nearest 0.1 seconds (see Hargreaves et al. 1998 for detailed method). The intensity of the beam source was adjusted such that the mean latency for control animals (non-STZ treated) was approximately 10 seconds. Each animal was tested 8 times and the mean difference score (between mean non-diabetic control latency and mean diabetic latency) are graphically presented in FIGS. 19A and 19B.

BB/W diabetic rats [5] = experiment: progression of neuropathic pain in BB/W diabetic rats, thermal nociception; assay type: in vivo, Male BB/W rats; conditions: 10 mg/kg i.p. daily; starting after 4 weeks, through six months
Text: (§2) Male BB/W rats (BR1, Mass) spontaneously develop a cell mediated autoimmune destruction of pancreatic B cells, resulting in onset of insulin-dependent (Type I) diabetes (Guberski 1994). […] This renders them valuable for experimental trials of new compounds for future treatments of this major disorder. In the present study, Compound 1 and Compound 2 were examined for their ability to alter the progression of diabetic neuropathy. The rats received daily injection of Compound 1 or Compound 2 (10 mg/kg i.p.) or vehicle, starting at the onset of diabetes (hyperglycemia) and up to 6 months thereafter. Another group of non-diabetic rats also receiving vehicle were tested. All animals were continuously monitored for body weight, urine volume, blood sugar and glycated haemoglobin. In the first month of the study, all animals were tested for thermal nociception in a Hargreaves apparatus, weekly. After the first month this was done biweekly and then monthly. The testing consists of directing an infrared heat source onto the […] surface of the rat hindpaw and noting the time taken for the animal to remove its paw (for detailed method see Hargreaves et al. 1998). Each animal was tested 8 times and the mean withdrawal latency noted.

BB/W diabetic rats [6] = experiment: nerve conduction velocity in BB/W diabetic rats; assay type: in vivo, Male BB/W rats; conditions: 10 mg/kg daily; starting at 8 weeks, through six months
Text: as §2, with “Each animal was tested 8 times and the mean withdrawal latency noted.” left out
Nerve conduction velocity was also measured every two weeks through the first eight weeks of treatment and every month thereafter through to the six months of treatment (see De Koning et al. 1987 for method details). […]

STZ-diabetic animals = experiment: motor and sensory nerve conduction velocity in STZ-diabetic animals; assay type: in vivo, rats; conditions: 10 mg/kg daily
Experimental: as §1
Motor and sensory nerve conduction velocity was also measured in STZ-diabetic animals after 4, 8 and 12 weeks of treatment (see De Koning and Gispen 1987 for detailed method). Briefly, stimulating needle electrodes were inserted close to the sciatic and tibial nerves with recording electrodes being placed subcutaneously over the distal foot muscles, in anesthetized rats.

PCP-treated rats = experiment: in vivo assay on schizophrenia (PCP model); conditions: 50 mg/kg i.p. before PCP (5 mg/kg)
Experimental: Rats treated with PCP develop symptoms, such as frantic running and incessant head-turning, that parallel psychotic symptoms in humans. Thus, to examine the effects of NAALADase inhibition on schizophrenia, rats were treated intraperitoneally with Compound 1 (50 mg/kg), Compound 2 (50 mg/kg) or a vehicle (H2O) before they received PCP (5 mg/kg). Head rolling scores were measured for over 2 hours following PCP injection.

O=C(O)CCC(CP(=O)(O)Cc1c(F)c(F)c(F)c(F)c1F)C(=O)O (stereo not shown) [Compound 2, 2-[[(2,3,4,5,6-pentafluorobenzyl)hydroxyphosphinyl]methyl]-pentanedioic acid]
immunostaining of MBP ([1]; 1 nM, two week treatment): significant increase
extent of myelination vs. maximal doses of ascorbic acid and progesterone ([1]; high dose, 1 μM): greater extent of myelination
withdrawal latency vs. vehicle animals [2]: significant increase
acetic acid (0.6%) induced writhing vs. vehicle control [3]: significantly attenuated
hyperalgesic response in diabetic rats [4]: completely reversed
withdrawal latencies vs. diabetic vehicle-treated rats (BB/W diabetic rats [5]): longer withdrawal latencies
nerve conduction deficits vs. diabetic controls receiving vehicle (BB/W diabetic rats [6]): significantly less severe nerve conduction deficits
sensory nerve conduction velocity (STZ-diabetic animals; after 8 weeks): significant improvement
motor nerve conduction velocity (STZ-diabetic animals; after 12 weeks): significant improvement
locomotor-activating effects of PCP (head rolling scores) (PCP-treated rats): significantly reduced
